From patent EP4763841A1, “PYRIDAZINONE COMPOUND AND USE THEREOF” (Xi'an Xintong Pharmaceutical Research Co., Ltd., priority 2023, dated 2025) come the findings set out here.

pEC50: −log10 of the molar value. Like-named read-outs stand apart in the source and are kept apart here.

For one data set, the target named is T1, THRβ (Homo sapiens, UniProt P10828).
T1 sequence (P10828 217-461 limits assumed): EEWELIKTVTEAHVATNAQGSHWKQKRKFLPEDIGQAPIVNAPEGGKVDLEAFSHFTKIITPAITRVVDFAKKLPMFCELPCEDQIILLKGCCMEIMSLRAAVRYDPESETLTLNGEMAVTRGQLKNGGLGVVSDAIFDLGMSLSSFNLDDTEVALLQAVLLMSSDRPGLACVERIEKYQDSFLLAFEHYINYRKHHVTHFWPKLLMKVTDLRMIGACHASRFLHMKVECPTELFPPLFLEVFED
The experiment in a line: HTRF test of agonist-induced SRC3-2 coactivator peptide recruitment to THRβ-LBD. The class given is biochemical. The note with it: for agonistic activity on THRβ compared with Resmetirom / selectivity of agonistic effect for THRβ over THRα: result in words. The procedure: (§1) 1. Experiment of binding of compounds to THRβ and THRα
(§2) Test principle: The effect of test compounds on THRβ and THRα was tested by using a method of HTRF. An MAb Anti GST-Eu cryptate antibody binds to GST-tagged THRα-LBD (or THRβ-LBD), while Streptavidin-XL665 binds to a biotin-labeled SRC3-2 coactivator peptide. […] At the same time, the resulting decrease in the distance between XL665-labeled SRC3-2 and an Eu-anti-GST antibody increases a THRFRET signal. The agonistic capacity at this target was assessed by the effect of compounds on the activity of THRα-LBD (THRβ-LBD) at different concentrations.
Test method: THRβ test procedures:
(§3) • (1) a 1×reaction solution was prepared. • (2) Preparation of compounds: the compound test starting concentration was 20 µM, 3-fold dilution was performed, 10 concentrations were set, and duplicate testing was set for each concentration. 100-fold dilution was performed in a 384-well Source plate to a corresponding solution with a final concentration, and then 200 nL of the solution was transferred to a 384-well reaction plate with Echo550 to be tested. 200 nL of 100% DMSO and a test article were respectively transferred to Min and Max wells. • (3) A 2×protein solution was prepared from the 1×reaction solution. • (4) A 4×SRC3-2 solution was prepared from the 1×reaction solution. • (5) A mixed solution of 4×GST-Eu cryptate and XL665 was prepared from the 1×reaction solution. • (6) 10 µl of the 2×protein solution was added to each well of the reaction plate, centrifugation was performed at 1000 rpm for 1 min, and incubation was performed at room temperature for 30 min. • (7) 5 µl of the 4×SRC3-2 solution was added to each well of the reaction plate, and centrifugation was performed at 1000 rpm for 1 min. • (8) 5 µL of the mixed solution of 4×GST-Eu cryptate and XL665 was added to each well of the reaction plate, centrifugation was performed at 1000 rpm for 1 min, and incubation was performed at 25°C. • (9) A fluorescence signal was read by using EnVision.

For another data set, the target named is THRα (Homo sapiens, UniProt P10827). The experiment in a line: HTRF test of agonist-induced SRC3-2 coactivator peptide recruitment to THRα-LBD. The class given is biochemical. The note with it: for pEC50: HTRF, starting concentration 20 µM, 3-fold dilution, 10 concentrations, duplicate; for agonistic activity on THRα: result in words. Here is the method: as §1, §2, §3
Sequence of THRα (P10827 148-410 isoform P10827-2 limits assumed, other chains not shown): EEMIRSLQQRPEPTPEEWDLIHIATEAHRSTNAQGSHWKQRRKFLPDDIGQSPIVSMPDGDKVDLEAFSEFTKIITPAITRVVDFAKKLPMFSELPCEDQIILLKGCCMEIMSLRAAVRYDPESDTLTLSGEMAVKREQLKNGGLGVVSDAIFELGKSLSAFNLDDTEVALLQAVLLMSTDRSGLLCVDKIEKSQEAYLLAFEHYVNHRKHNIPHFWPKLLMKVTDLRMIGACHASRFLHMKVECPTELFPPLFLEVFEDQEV
THRα test procedures were the same as above.
In general terms: Time-resolved FRET reads energy transfer from a long-lived donor to a nearby acceptor.

Data set [1] in a line: Comparison of compound metabolites by human liver microsome incubation (LC-MS/MS). The class given is in vitro ADME. The note with it: 10 µM compound, human liver microsome 1.0 mg/mL, β-NADPH 1.0 mM, 37°C, 60 min. The procedure: The purpose of this experiment was to evaluate the comparison of the content of major metabolites of human liver microsome incubated compounds.
Sample treatment: a sample was precipitated with acetonitrile (ACN) containing 0.1% formic acid in a ratio of 1:2, and further centrifuged. A supernatant was dried with a nitrogen flow. A residue was reconstituted in […] of 10% ACN and 90% H2O containing 0.1% formic acid. […] of the reconstituted material was injected into an LC-MS/MS system for analysis.
(Microsomes from liver hold many membrane-bound enzymes, among them those of drug oxidation.)

The next data set has as its system NASH model of B-DIO mice. The experiment in a line: Efficacy test in NASH model of B-DIO mice (HFD + CCL4). Format: in vivo. The text has this: An objective of this experiment was to evaluate the pharmacodynamics of compounds of the present invention by using an NASH model of B-DIO mice.
Five C57BL/6 mice on normal diet were assigned to an experimental group G1, and 25 B-DIO mice were randomly assigned to five experimental groups according to the body weight, with 5 mice in each group.
The day of grouping was Day-1, intraperitoneal injection was started on Day 0 in the groups G2-G6 for CCL4 modeling, the concentration of a modeling agent is 0.2 µl/g, the modeling frequency was twice a week, and administration was started on Day 0.
The body weight was measured twice a week after grouping. At the end of the experiment (Day 26), the mice were fasted for 4 h, and non-anticoagulated blood of the mice in the groups G1-G6 was collected and centrifuged, and a serum was taken for blood biochemical testing. Livers in the groups G1-G6 were collected and weighed, 20 mg of the liver was weighed for determination of TC and TG, and the remaining liver was placed in formalin for fixation for pathological observation.

The nature of data set [2]: In vivo pharmacokinetic study of elimination phase half-life after single IV bolus. Also on record: species or system Sprague Dawley rats. The note with it: Sprague-Dawley, rat, whole blood, intravenous, I.V bolus, 5 mg/kg, rats, read-out: Elimination phase half-life (T1/2) (converted). Here is the method:
Blood samples were collected from animals (IV group) before administration and at time points of 0.083 h, 0.25 h, 0.5 h, 1 h, 2 h, 4 h, 8 h, and 24 h after the end of administration. • Sample treatment: prior to blood collection, a centrifuge tube with 10 µl of EDTA-K2 and 1.2 mL of 50% acetonitrile-DMSO (a volume ratio of whole blood to 50% acetonitrile-DMSO is approximately 1:4) was placed in an ice box filled with crushed ice. The collected blood was added to the centrifuge tube, vortexed for at least 5 min, and then temporarily stored and transported in the ice box filled with crushed ice; and the blood was centrifuged at 12,000 g for 10 min at 4°C, wherein centrifugation was completed within 1 h after blood collection. A whole blood supernatant after centrifugation was transferred to a newly labeled tube, and transferred to -60°C or below for storage for analytical testing.

[3] abbreviates: HTRF, starting concentration 20 µM, 3-fold dilution, 10 concentrations, duplicate, read-out: THRβ (EC50).
Setting [4] is: liver, Day 26, 3 mg/kg I.G. Q.D., HFD+CCL4, mean±standard error.

As to `[2H]C([2H])([2H])C(c1cc(Oc2c(Cl)cc(-n3nc(CF)c(=O)[nH]c3=O)cc2Cl)n[nH]c1=O)C([2H])([2H])[2H]` [Compound 1], the pEC50 is 7.70 at THRβ (setting [3]) and 6.49 on THRα. At THRβ, the “agonistic activity on THRβ compared with Resmetirom” value is reported as “significantly better than that of Resmetirom”.

As to `Cc1c(Oc2c(Cl)cc(-n3nc(CF)c(=O)[nH]c3=O)cc2Cl)n[nH]c(=O)c1C(C)C` [Compound 16], the pEC50 at THRβ (setting [3]) is 7.96; on THRα it was < 5.30. Moreover, the “agonistic activity on THRβ compared with Resmetirom” value at THRβ is given as “significantly better than that of Resmetirom”. The “selectivity of agonistic effect for THRβ over THRα” value on THRβ is “selective agonistic effects on THRβ”. Further, the “Monooxidized metabolite percent content (%)” value in data set [1] and in data set [1] (listed as compound 16) was 9.7% throughout. The “agonistic activity on THRα” value at THRα was “weak agonistic activity on THRα”.

As to `Cc1c(C(C)C)c(Oc2c(Cl)cc(-n3nc(CF)c(=O)[nH]c3=O)cc2Cl)n[nH]c1=O` [Compound 17], at THRβ, the pEC50 was 7.34, the “agonistic activity on THRβ compared with Resmetirom” value is “significantly better than that of Resmetirom” and the “selectivity of agonistic effect for THRβ over THRα” value is “selective agonistic effects on THRβ”. On THRα, the pEC50 was < 5.30 and the “agonistic activity on THRα” value is recorded as “weak agonistic activity on THRα”.

Consider `CC(C)c1cc(Oc2c(Cl)cc(-n3nc(CF)c(=O)[nH]c3=O)cc2Cl)n[nH]c1=O` [Compound X1, reference compound], for which the pEC50 on THRβ (setting [3]) is 7.66; at THRα, 7.02.

As to `CC(C)c1cc(Oc2c(Cl)cc(-n3nc(C#N)c(=O)[nH]c3=O)cc2Cl)n[nH]c1=O` [Resmetirom, reference compound], the “area proportion of lipid droplets in the liver (oil red O) compared with the model group G2” value with NASH model of B-DIO mice (G3, 3 mg/kg, Day 26, result in words (FIG. 8)) is “decreased but no significant difference was seen”. Besides, the “liver fibrosis (Sirius red) compared with the model group G2” value in the data set on NASH model of B-DIO mice (G3, 3 mg/kg, Day 26, result in words (FIG. 9)) is on record as “certain improvement effects on liver fibrosis”. Besides, the “TC” value in the data set with NASH model of B-DIO mice (setting [4]) was found to be 56.44 ± 0.85 µmol/g. Also, the “TG” value amounted to 74.26 ± 4.34 µmol/g in the data set on NASH model of B-DIO mice (setting [4]) and 1.17 ± 0.06 mM in the data set on NASH model of B-DIO mice (serum, Day 26, 3 mg/kg I.G. Q.D., HFD+CCL4, mean±standard error). For the same molecule, the half-life in data set [2] is 2.98 h.

One may read the pEC50 as the EC50 on a negative log10 scale, so that one unit is a factor of ten.
